From the NIST ThermoML archive (doi:10.1021/acs.jced.7b00135)
Values joined by “and” are separate entries in the source; they are usually repeats but may differ in a detail not shown here. Equal values may be shown once.

Columns and labels:
[1] = wn = mass fraction of the nth substance listed; conditions: 100 kPa, Liquid; for viscosity: Capillary tube (Ostwald / Ubbelohde) method; for mass density: Vibrating tube method
[2] = Liquid, Closed cell (Static) method

O=S(=O)([N-]S(=O)(=O)C(F)(F)F)C(F)(F)F.[Li+] [lithium bis((trifluoromethyl)sulfonyl)amide] + O
[1]
Conditions | mass density, 298.15 K [kg/m3] | mass density, 323.15 K [kg/m3] | mass density, 348.15 K [kg/m3] | mass density, 373.15 K [kg/m3] | viscosity, 298.15 K [mPa·s] | viscosity, 323.15 K [mPa·s] | viscosity, 348.15 K [mPa·s] | viscosity, 373.15 K [mPa·s]
w1 = 0.2739 | 1160 | 1148 | 1131 | 1109 | 1.54 | 0.88 | 0.59 | 0.48
w1 = 0.4871 | 1325 | 1304 | 1282 | 1258 | 2.74 | 1.5 | 1 | 0.68
w1 = 0.6633 | 1493 | 1467 | 1440 | 1401 | 5.34 | 2.83 | 1.82 | 1.54
w1 = 0.8024 | 1654 | 1624 | 1598 | 1557 | 18.23 | 8.75 | 5.2 | 3.42

O [water]
[2]
Conditions | vapor or sublimation pressure
274.15 K | 0.661 kPa and 0.657 kPa
278.15 K | 0.873 kPa
279.48 K | 0.953 kPa
283.15 K | 1.228 kPa
286.16 K | 1.508 kPa
291.39 K | 2.094 kPa
293.14 K | 2.337 kPa
293.15 K | 2.339 kPa
296.31 K | 2.839 kPa
296.32 K | 2.834 kPa
298.81 K | 3.288 kPa
301.37 K | 3.827 kPa
303.15 K | 4.247 kPa
303.57 K | 4.36 kPa
307.73 K | 5.507 kPa
308.26 K | 5.666 kPa
312.87 K | 7.275 kPa
313.07 K | 7.345 kPa
313.15 K | 7.385 kPa
314.62 K | 7.977 kPa
318.13 K | 9.585 kPa and 9.578 kPa
322.99 K | 12.26 kPa
323.1 K | 12.32 kPa
323.15 K | 12.35 kPa
323.17 K | 12.36 kPa
328.14 K | 15.75 kPa
328.88 K | 16.31 kPa
333.15 K | 20.06 kPa and 19.95 kPa
343.15 K | 31.28 kPa and 31.2 kPa
353.15 K | 47.45 kPa and 47.41 kPa
363.15 K | 70.21 kPa and 70.18 kPa
373.15 K | 101.42 kPa and 101.42 kPa
383.15 K | 143.29 kPa and 143.38 kPa
393.15 K | 198.75 kPa and 198.67 kPa
403.15 K | 270.22 kPa and 270.28 kPa
413.15 K | 361.64 kPa and 361.54 kPa
423.15 K | 476.33 kPa and 476.17 kPa
433.15 K | 618.34 kPa and 618.24 kPa
443.15 K | 792.15 kPa and 792.19 kPa
453.15 K | 1002.7 kPa and 1002.8 kPa
463.15 K | 1255.2 kPa and 1255.2 kPa
468.15 K | 1398.9 kPa
470.15 K | 1459.7 kPa
471.15 K | 1491 kPa and 1490.9 kPa
